# What was measured:
# Aβ peptides = test: Extracellular and intracellular [35S]-labeled Aβ peptides in APP-expressing H4, MDCK and CHO cells (pulse-chase, immunoprecipitation, autoradiography); format: cell-based, human; canine; Chinese hamster (cells expressing human APP)
# Description: (§1) The three cell lines utilized were: Chinese Hamster Ovary (CHO) cells expressing the 751 amino acid form of APP; Mabin-Darby Canine Kidney (MDCK) cells which overexpress the 695 amino acid form of APP; Human neuroglioma (H4) cells overexpressing the 695 form of human APP. All cells were prepared by the stable introduction of a cDNA coding for human APP. All cell lines were maintained in DMEM containing 10% FBS and antibiotics.
# In order to characterize the effects of cholesterol depletion, cell cultures of each cell line were cultured on six-well plates for 4 days in DMEM containing 10% FCLPDS, which lipid depleted medium reduced the external source of cholesterol, in the presence of lovastatin acid (LA) or absence of LA.
# For measurement of APP processing and Aβ peptide formation, medium was removed and the cells were washed once with PBS and then incubated for 2 hours in DMEM containing 1 mCi/ml [^35S] Methionine. After this “pulse” period, the cells were either (1) lysed to measure the total labeled APPi and APPm at time zero, or (2) the cells were incubated for 2 hours in fresh, unlabeled complete medium (“chase”) and then lysed. Then the cell supernatants and lysates were treated with the appropriate antibody to calculate the amounts of APPi, APPm, APPs, and Aβ peptides.
# To measure Aβ peptides, or to measure APPs, which is the secreted carboxyl-terminal truncated form, cell supernatants were incubated with antibody 6E10, which recognizes the first 15 amino acids of the Aβ peptide that correspond to the COOH-terminal amino acids of APPs . See Buxbaum, J. D., et al. (1994) Proc Natl Acad Sci USA. 91:4489-93, which is incorporated herein by reference.
# The incubations with antibody 6E10 or antibody 369 were performed at 4° C. for 75 minutes followed by a 45 minute incubation at 4° C. with either agarose-linked anti-mouse IgG for antibody 6E10 or protein A sepharose for antibody 369. The beads were then washed three times for 10 minutes and then run on either a 10-20% Tris-Tricine Gel for APPs and Aβ peptides or an 8% polyacrylamide gel for cell-associated APR The gels were dried and exposed to a Phosphor Imager® screen (STORM 860, Molecular Dynamics) and exposed for a minimum of two days. The protein bands were visualized on a STORM 860 Phosphor Imager® (Molecular Dynamics) and quantitated using ImageQuant® (Molecular Dynamics). […]
# To determine whether a decrease in cholesterol is associated with a change in the amount of extracellular Aβ peptides, the H4, MDCK, and CHO cells, expressing human APPm were incubated for 4 days in the presence or absence of 0.5 μM LA. […] Relative levels of extracellular Aβ peptides were determined under each condition by quantitative Phosphorlmager autoradiography. […]
# APP processing [1] = test: APP processing (APPs formation, APPm levels) in H4 cells; format: cell-based, human; settings: 0.5 μM LA
# Description: as §1
# For measurement of APP processing and Aβ peptide formation, medium was removed and the cells were washed once with PBS and then incubated for 2 hours in DMEM containing 1 mCi/ml [^35S] Methionine. […]
# The incubations with antibody 6E10 or antibody 369 were performed at 4° C. for 75 minutes followed by a 45 minute incubation at 4° C. with either agarose-linked anti-mouse IgG for antibody 6E10 or protein A sepharose for antibody 369. […] The protein bands were visualized on a STORM 860 Phosphor Imager® (Molecular Dynamics) and quantitated using ImageQuant® (Molecular Dynamics).
# To determine whether cholesterol depletion affects other aspects of APP processing, H4 cells were incubated for four days in the presence or absence of 0.5 μM LA, and subjected to metabolic labeling. The levels of [^35S]-labeled APPi and APPm were determined by irnmunoprecipitation from cell lysates with an antibody against the COOH-terminal of APP, followed by quantitative autoradiography. […]
# APP processing [2] = test: Extracellular APPs, extracellular Aβ peptides and total APPm in CHO cells; format: cell-based, Chinese hamster (cells expressing human APP)
# Description: The three cell lines utilized were: Chinese Hamster Ovary (CHO) cells expressing the 751 amino acid form of APP; Mabin-Darby Canine Kidney (MDCK) cells which overexpress the 695 amino acid form of APP; Human neuroglioma (H4) cells overexpressing the 695 form of human APP. All cells were prepared by the stable introduction of a cDNA coding for human APP. All cell lines were maintained in DMEM containing 10% FBS and antibiotics. […] After this “pulse” period, the cells were either (1) lysed to measure the total labeled APPi and APPm at time zero, or (2) the cells were incubated for 2 hours in fresh, unlabeled complete medium (“chase”) and then lysed. Then the cell supernatants and lysates were treated with the appropriate antibody to calculate the amounts of […], and Aβ peptides. To measure cell-associated, full-length APPi and APPm, or to measure carboxyl-terminal fragments of APP, cell lysates were incubated with antibody 369 which recognizes the carboxyl-terminus of APP. See Buxbaum, J. D., et al. (1990) Proc Natl Acad Sci USA 87:6003-6, which is incorporated herein by reference. […] See Buxbaum, J. D., et al. (1994) Proc Natl Acad Sci USA. 91:4489-93, which is incorporated herein by reference. The incubations with antibody 6E10 or antibody 369 were performed at 4° C. for 75 minutes followed by a 45 minute incubation at 4° C. with either agarose-linked anti-mouse IgG for antibody 6E10 or protein A sepharose for antibody 369. […] The protein bands were visualized on a STORM 860 Phosphor Imager® (Molecular Dynamics) and quantitated using ImageQuant® (Molecular Dynamics). […] Specifically, it was determined that treatment of CHO cells with 0.5 μM LA reduced the amount of extracellular APPs by about 30% of the amount calculated for the control and reduced the amount of extracellular Aβ peptides by about 70% of the amount calculated for the control when no LA was present. The amount of extracellular Aβ peptides and the amount of extracellular APPs were normalized to the amount of total APP found in the cell at the end of cell labeling as described above. […]
# [3] = CHO cells, 0.5 μM LA, normalized to total APP
compound,measurement,setting,value
"CC[C@H](C)C(=O)O[C@H]1C[C@@H](C)C=C2C=C[C@H](C)[C@H](CC[C@@H](O)C[C@@H](O)CC(=O)O)[C@H]21 [LA, lovastatin acid]",decrease in amounts of extracellular Aβ peptides as compared to the untreated cells,"Aβ peptides; 0.5 μM LA, 4 days, lipid depleted medium, H4, MDCK and CHO cells",40-60%
same,LA concentration sufficient to significantly (p<0.001) decrease the amount of extracellular Aβ peptides,"Aβ peptides; each cell type, various concentrations of LA",≥ 0.05 µM
same,levels of intracellular Aβ peptides in cell lysates,Aβ peptides; presence of 0.5 μM LA,No detectable levels
same,reduction of extracellular Aβ peptide levels (weaker effect),Aβ peptides; printed as 0.5 μM LA,< 20%
same,"effects on maturation, levels of [35S]-labeled APPm (FIG. 6)",APP processing [1],not sufficient to account for the decrease in Aβ peptide levels
same,[35S]-labeled APPs formation as compared to control cells (FIG. 5),"APP processing [1]; H4 cells, four days",modest decrease
same,level of total APPm,APP processing [2]; CHO cells treated with 0.5 μM LA (control 3.2×10^6),3.4×10^6 arbitrary units
same,reduction of the amount of extracellular APPs relative to control,APP processing [2]; [3],about 30%
same,reduction of the amount of extracellular Aβ peptides relative to control,APP processing [2]; [3],about 70%

# From patent US20050215620A1, “Method of treating amyloid beta precursor disorders” (Andrx Labs, LLC, priority 1999, published 2005)
